Experimental findings from patent publication US12565501B2, “Muscarinic acetylcholine M1 receptor antagonists” (Contineum Therapeutics, Inc., priority 2019, dated 2026) are described below.

Each structure is given as a SMILES string. Where only a bound is given, the exact number is not on record here.

Common to all, as to format: cell-based
One experiment addresses T1, human M1 receptor (Homo sapiens, UniProt P11229).
T1 sequence (P11229 1-460): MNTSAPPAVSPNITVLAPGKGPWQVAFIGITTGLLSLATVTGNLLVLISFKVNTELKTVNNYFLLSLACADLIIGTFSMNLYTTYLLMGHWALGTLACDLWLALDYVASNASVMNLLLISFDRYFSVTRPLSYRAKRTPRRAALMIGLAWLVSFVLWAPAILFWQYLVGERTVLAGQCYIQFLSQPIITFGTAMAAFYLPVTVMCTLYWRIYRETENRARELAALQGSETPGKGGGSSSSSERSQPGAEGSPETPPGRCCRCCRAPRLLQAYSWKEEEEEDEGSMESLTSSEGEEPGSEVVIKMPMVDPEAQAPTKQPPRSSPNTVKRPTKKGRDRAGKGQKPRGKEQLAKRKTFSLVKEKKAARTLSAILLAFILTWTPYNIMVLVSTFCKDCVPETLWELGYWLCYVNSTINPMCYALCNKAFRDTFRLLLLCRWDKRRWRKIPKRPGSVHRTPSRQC
Briefly: In vitro functional assay of muscarinic acetylcholine receptor activity (aequorin calcium flux, reversal of EC80 acetylcholine response). Particulars: CHO-K1 cells stably expressing human M1 receptor with aequorin; acetylcholine at EC80; calcium flux (luminescence); read-out: M1 IC50. The essentials:
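CHO-K1 cells expressing human M1 and aequorin, loaded with 5 μM coelenterazine for 4 h, preincubated with compound 30 min at room temperature, then challenged with EC80 acetylcholine.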

The target of a further experiment is T2, human M2 receptor (Homo sapiens, UniProt P08172).
T2 sequence (P08172 1-466): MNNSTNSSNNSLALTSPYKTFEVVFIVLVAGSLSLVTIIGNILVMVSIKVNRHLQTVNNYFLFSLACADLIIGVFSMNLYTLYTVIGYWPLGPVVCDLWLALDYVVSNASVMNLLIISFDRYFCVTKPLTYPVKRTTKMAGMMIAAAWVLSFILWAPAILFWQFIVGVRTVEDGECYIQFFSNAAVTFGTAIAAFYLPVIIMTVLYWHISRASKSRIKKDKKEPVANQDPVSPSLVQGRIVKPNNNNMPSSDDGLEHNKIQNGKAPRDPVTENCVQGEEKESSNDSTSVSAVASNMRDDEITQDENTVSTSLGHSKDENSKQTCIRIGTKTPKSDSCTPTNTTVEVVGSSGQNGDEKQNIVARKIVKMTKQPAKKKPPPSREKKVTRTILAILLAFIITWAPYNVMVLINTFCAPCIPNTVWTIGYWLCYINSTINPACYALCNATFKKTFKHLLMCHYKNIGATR
Description: In vitro functional assay, reversal of EC80 acetylcholine response in CHO-K1 aequorin cells. On the procedure: (§1) CHO-K1 cells stably expressing human M1 receptor with aequorin (Perkin Elmer) were grown in F12 media (Gibco) containing 10% FBS (ATCC), 0.4 mg/mL geneticin (Sigma-Aldrich) and 0.25 mg/mL Zeocin (Invitrogen). Cells were grown as per the manufacturer's protocol. For compound testing, cells were grown to confluency and detached gently with Accutase (Sigma-Aldrich) followed by centrifugation for 5 min at 150× g. Cells were then re-suspended in assay buffer (i.e. DMEM/F-12 HEPES without phenol red (Invitrogen) with 0.1% BSA (Sigma-Aldrich)) at a density of 5×10^6 cells/ml. Under sterile conditions, 5 μM coelenterazine (Invitrogen) was added to the cells, mixed, then incubated at room temperature protected from light, with gentle agitation, for 4 h.
(§2) Primary compound plates were prepared in 100% DMSO in opaque 96-well plates (VWR) and serially diluted in half log increments. Secondary compound plates were prepared at 3× concentration in assay buffer. Compounds were added to white, clear bottom tissue culture treated 96-well plates (Fisher Scientific). Coelenterazine-loaded cells were then added at 5×10^5 cells/well.
(§3) Compounds and cells were incubated at room temperature for 30 min in the dark. Acetylcholine at the EC80 concentration was added and calcium flux measured using a FlexStation 3 (Molecular Devices). Sigmoidal dose-response curves were generated by measuring luminescence over 40 sec and calculating the area under the curve. Dose response curves and IC50 values were generated using Prism (GraphPad). Compounds were tested at a final concentration range of 100 μM to […] in 0.1% DMSO.
(§4) CHO-K1 cells stably expressing human M2, M3 and M4 receptors, respectively, with aequonin (Perkin Elmer) were used to assess a test compound's ability to dose-dependently reverse the EC80 acetylcholine response. The IC50 of the compounds was calculated from the dose response curve.

Another experiment has as its target human M3 receptor (Homo sapiens, UniProt P20309). The experiment is described as above. On the procedure:
as §1, §2, §3, §4

Another experiment concerns the target T3, human M4 receptor (Homo sapiens, UniProt P08173).
T3 sequence (P08173 1-479): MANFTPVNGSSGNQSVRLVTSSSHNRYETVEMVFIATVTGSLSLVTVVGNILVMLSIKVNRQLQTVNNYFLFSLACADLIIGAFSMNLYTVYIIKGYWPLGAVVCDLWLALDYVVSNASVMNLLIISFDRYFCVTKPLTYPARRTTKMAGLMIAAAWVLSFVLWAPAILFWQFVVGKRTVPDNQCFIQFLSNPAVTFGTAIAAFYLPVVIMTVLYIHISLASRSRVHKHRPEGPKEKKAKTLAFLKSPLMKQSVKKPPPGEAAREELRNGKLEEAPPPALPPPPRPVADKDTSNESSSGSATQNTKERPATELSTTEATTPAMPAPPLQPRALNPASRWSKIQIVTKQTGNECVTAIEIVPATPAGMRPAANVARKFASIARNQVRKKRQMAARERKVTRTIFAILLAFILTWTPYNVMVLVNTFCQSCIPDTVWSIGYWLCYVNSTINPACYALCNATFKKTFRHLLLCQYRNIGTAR
The experiment is described as above. On the procedure:
as §1, §2, §3, §4

Chain of human M3 receptor (P20309 whole entry): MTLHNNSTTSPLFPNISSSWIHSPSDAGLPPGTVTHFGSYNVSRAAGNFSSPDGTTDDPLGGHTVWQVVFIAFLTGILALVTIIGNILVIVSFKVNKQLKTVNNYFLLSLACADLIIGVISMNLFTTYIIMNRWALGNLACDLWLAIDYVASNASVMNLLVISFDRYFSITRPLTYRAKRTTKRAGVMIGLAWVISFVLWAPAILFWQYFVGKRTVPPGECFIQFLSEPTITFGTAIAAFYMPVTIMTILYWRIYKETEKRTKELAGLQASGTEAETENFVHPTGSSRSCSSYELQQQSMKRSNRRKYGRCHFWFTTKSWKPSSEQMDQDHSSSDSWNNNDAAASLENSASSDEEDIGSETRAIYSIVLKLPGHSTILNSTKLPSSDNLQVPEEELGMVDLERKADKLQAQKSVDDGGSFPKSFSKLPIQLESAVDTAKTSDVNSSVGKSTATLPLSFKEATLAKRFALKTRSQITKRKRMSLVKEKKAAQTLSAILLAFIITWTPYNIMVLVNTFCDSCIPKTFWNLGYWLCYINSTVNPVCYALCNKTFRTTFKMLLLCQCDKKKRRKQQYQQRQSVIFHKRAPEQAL

With `C[C@@H](OCCC(=O)N1C[C@H]2CC[C@@H](C1)N2c1ccc(C#N)cn1)c1ccccc1` [Example 304, 6-(3-(3-((R)-1-phenylethoxy)propanoyl)-3,8-diazabicyclo[3.2.1]octan-8-yl)nicotinonitrile], the IC50 on human M1 receptor is 10 to 100 nM; on human M2 receptor, 1000 to 10000 nM; at human M3 receptor, above 1000 nM.

For `N#Cc1ccc(N2C3CCC2CN(C(=O)COC2(c4cc(F)cc(F)c4)CC2)C3)nc1` [Example 210, 6-(3-(2-(1-(3,5-difluorophenyl)cyclopropoxy)acetyl)-3,8-diazabicyclo[3.2.1]octan-8-yl)nicotinonitrile], the results for the IC50 on human M1 receptor, on human M2 receptor and on human M3 receptor were 10 to 100 nM, above 1000 nM and 1000 to 10000 nM, respectively.

Regarding `N#Cc1ccc(N2C3CCC2CN(C(=O)CCC(F)(F)c2cccn4ncnc24)C3)nc1` [Example 158, 6-(3-(4-([1,2,4]triazolo[1,5-a]pyridin-8-yl)-4,4-difluorobutanoyl)-3,8-diazabicyclo[3.2.1]octan-8-yl)nicotinonitrile], the IC50 on human M1 receptor was below 10 nM; on human M2 receptor it was 1000 to 10000 nM; at human M3 receptor it was 100 to 1000 nM; at human M4 receptor it was 100 to 1000 nM.

With `COc1ccnc(C(F)(F)CCC(=O)N2CC3CCC(C2)N3c2ccc(C#N)cn2)c1` [Example 147, 6-(3-(4,4-difluoro-4-(4-methoxypyridin-2-yl)butanoyl)-3,8-diazabicyclo[3.2.1]oxtan-8-yl)nicotinonitrile], the IC50 is below 10 nM at human M1 receptor, 1000 to 10000 nM at human M2 receptor, 100 to 1000 nM at human M3 receptor and 100 to 1000 nM on human M4 receptor.

On to `C[C@H](NCC(=O)N1CC2CCC(C1)N2c1ccc(C#N)cn1)c1ccc(F)cc1F` [Example 87, 6-(3-(((S)-1-(2,4-difluorophenyl)ethyl)glycyl)-3,8-diazabicyclo[3.2.1]octan-8-yl)nicotinonitrile], for which the IC50 was below 10 nM at human M1 receptor, 1000 to 10000 nM on human M2 receptor, 1000 to 10000 nM at human M3 receptor and 1000 to 10000 nM at human M4 receptor.

As for `N#Cc1ccc(N2C3CCC2CN(C(=O)COC2(c4ccc(F)c(F)c4)CC2)C3)nc1` [Example 177, 6-(3-(2-(1-(3,4-difluorophenyl)cyclopropoxy)acetyl)-3,8-diazabicyclo[3.2.1]octan-8-yl)nicotinonitrile], the IC50 at human M1 receptor lay in the range of 10 to 100 nM; at human M2 receptor it was 1000 to 10000 nM; on human M3 receptor it was 1000 to 10000 nM; on human M4 receptor, 1000 to 10000 nM.

As to `N#Cc1ccc(N2C3CC[C@H]2CN(C(=O)COC2(c4ccc(F)c(F)c4)CCC2)C3)nc1` [Example 239], the IC50 on human M1 receptor is below 10 nM; on human M2 receptor, 1000 to 10000 nM; at human M3 receptor, 1000 to 10000 nM; on human M4 receptor, 1000 to 10000 nM.

Consider `COc1cccnc1C(F)(F)CCC(=O)N1CC2CCC(C1)N2c1ccc(C#N)cn1` [Example 162, 6-(3-(4,4-difluoro-4-(3-methoxypyridin-2-yl)butanoyl)-3,8-diazabicyclo[3.2.1]octan-8-yl)nicotinonitrile], for which the IC50 on human M1 receptor was below 10 nM; on human M2 receptor it was 1000 to 10000 nM; at human M3 receptor it was 100 to 1000 nM; at human M4 receptor it was 100 to 1000 nM.

For `N#Cc1ccc(N2C3CCC2CN(C(=O)COC2(c4ncccc4F)CCC2)C3)nc1` [Example 250, 6-(3-(2-(1-(3-fluoropyridin-2-yl)cyclobutoxy)acetyl)-3,8-diazabicyclo[3.2.1]octan-8-yl)nicotinonitrile], the IC50 at human M1 receptor is 100 to 1000 nM; at human M2 receptor, above 1000 nM; on human M3 receptor it was 1000 to 10000 nM.

For `N#Cc1ccc(N2C3CCC2CN(C(=O)CNC2(c4ccc(F)cc4F)CC2)C3)nc1` [Example 59, 6-(3-((1-(2,4-difluorophenyl)cyclopropyl)glycyl)-3,8-diazabicyclo[3.2.1]octan-8-yl)nicotinonitrile], the IC50 at human M1 receptor is below 10 nM; on human M2 receptor, 1000 to 10000 nM; at human M3 receptor, 1000 to 10000 nM; at human M4 receptor, 1000 to 10000 nM.

`N#Cc1ccc(C2(NCCC(=O)N3CC4CCC(C3)N4c3ccc(C#N)cn3)CC2)cc1` [Example 14, 6-(3-(3-((1-(4-cyanophenyl)cyclopropyl)amino)propanoyl)-3,8-diazabicyclo[3.2.1]octan-8-yl)nicotinonitrile]: the IC50 on human M1 receptor lay within 1000 to 10000 nM.

Take `CC(NCCC(=O)N1C[C@H]2CC[C@@H](C1)N2c1ccc(C#N)cn1)c1c(F)ccc2nccn12` (mixture of isomers) [Example 53, 6-(3-(3-((1-(6-fluoroimidazo[1,2-a]pyridin-5-yl)ethyl)amino)propanoyl)-3,8-diazabicyclo[3.2.1]octan-8-yl)nicotinonitrile]: the IC50 on human M1 receptor is 10 to 100 nM.

Consider `CC(c1ccccc1)S(=O)(=O)CCC(=O)N1CC2CCC(C1)N2c1ccc(C#N)cn1` (racemic) [Example 174, 6-(3-(3-((1-phenylethyl)sulfonyl)propanoyl)-3,8-diazabicyclo[3.2.1]octan-8-yl)nicotinonitrile], for which the IC50 on human M1 receptor is above 1000 nM.

Regarding `N#Cc1ccc(N2C3CCC2CN(C(=O)COC(c2cccc4ncccc24)C(F)F)C3)nc1` (racemic) [Example 199, 6-(3-(2-(2,2-difluoro-1-(quinolin-5-yl)ethoxy)acetyl)-3,8-diazabicyclo[3.2.1]octan-8-yl)nicotinonitrile], the IC50 on human M1 receptor is below 10 nM.

Consider `N#Cc1ccc(N2C3CCC2CN(C(=O)COC2(c4ccc(F)cc4Br)CC2)C3)nc1` [Example 221, 6-(3-(2-(1-(2-bromo-4-fluorophenyl)cyclopropoxy)acetyl)-3,8-diazabicyclo[3.2.1]octan-8-yl)nicotinonitrile], for which the IC50 on human M1 receptor fell in the range of 10 to 100 nM.

On to `COc1ccc(C#N)c(C2(OCC(=O)N3CC4CCC(C3)N4c3ccc(C#N)cn3)CC2)c1` [Example 293, 6-(3-(2-(1-(2-cyano-5-methoxyphenyl)cyclopropoxy)acetyl)-3,8-diazabicyclo[3.2.1]octan-8-yl)nicotinonitrile], for which, at human M1 receptor, the IC50 was below 10 nM.

For `N#Cc1ccc(N2[C@@H]3CC[C@H]2CN(C(=O)CCNC2(c4ccc(F)c(F)c4)CC2)C3)cn1` [Example 46, 5-(3-(3-((1-(3,4-difluorophenyl)cyclopropyl)amino)propanoyl)-3,8-diazabicyclo[3.2.1]octan-8-yl)picolinonitrile], the IC50 at human M1 receptor was below 10 nM.

For the compound `Cn1ccc(C2(OCC(=O)N3CC4CCC(C3)N4c3ccc(C#N)cn3)CCC2)cc1=O` [Example 300, 6-(3-(2-(1-(1-methyl-2-oxo-1,2-dihydropyridm-4-yl)cyclobutoxy)acetyl)-3,8-diazabicyclo[3.2.1]octan-8-yl)nicotinonitrile], the IC50 on human M1 receptor fell in the range of 10 to 100 nM.
